Measurements from ChEMBL document CHEMBL3271983, “Potential antitumor agents. 26. Anionic congeners of the 9-anilinoacridines” (J Med Chem, 1978).

Experiments:
physchem [1] = assay: physchem
Description: Dissociation constant, basic pKa of the compound by UV spectrophotometry

physchem [2] = assay: physchem; remark: listed apart in the source
Description: Dissociation constant, acidic pKa of the compound by UV spectrophotometry

Structure (SMILES) | pKa (physchem [1]) | pKa (physchem [2])
COC(=O)Nc1ccc(Cc2c3ccccc3nc3ccccc23)cc1 | 7.64 | –
CC(=O)Nc1ccc2c(Nc3ccc(C(=O)O)cc3)c3ccccc3nc2c1 | 7.42 | –
COc1cc(C(=O)O)ccc1Nc1c2ccccc2nc2ccccc12 | 7.41 | –
O=S(=O)(O)Cc1ccc(Nc2c3ccccc3nc3ccccc23)cc1 | 7.64 | –
O=C(O)c1ccc(Nc2c3ccccc3nc3ccccc23)cc1 | 7.17 | 4.2
Nc1ccc(Cc2c3ccccc3nc3ccccc23)cc1 | 8.36 | –
NC(=O)CCc1ccc(Nc2c3ccccc3nc3ccccc23)cc1 | 7.63 | –
CC(=O)c1ccc(Cc2c3ccccc3nc3ccccc23)cc1 | 6.12 | –
CN(c1ccc(Nc2c3ccccc3nc3ccccc23)cc1)S(C)(=O)=O | 6.95 | –
O=C(O)/C=C/c1ccc(Nc2c3ccccc3nc3ccccc23)cc1 | 7.17 | –
Cc1cccc2c(Nc3ccc(NS(C)(=O)=O)cc3)c3ccccc3nc12 | 7.15 | –
COc1ccc(Cc2c3ccccc3nc3ccccc23)cc1 | 7.94 | –
COC(=O)c1ccc(Nc2c3ccccc3nc3ccccc23)cc1 | 6.21 | –
O=[N+]([O-])c1ccc(Nc2c3ccccc3nc3ccccc23)cc1 | 5.58 | –
COc1cc(NS(C)(=O)=O)ccc1Nc1c2ccccc2nc2ccccc12 [AMSACRINE] | 7.43 | –
Clc1ccc(Cc2c3ccccc3nc3ccccc23)cc1 | 7.06 | –

Structure (SMILES) | pKa (physchem [1]) | pKa (physchem [2])
O=S(=O)(O)c1ccc(Nc2c3ccccc3nc3ccccc23)cc1 | 6.87 | –
O=C(O)Cc1cccc(Nc2c3ccccc3nc3ccccc23)c1 | 7.82 | –
NC(=O)Cc1ccc(Nc2c3ccccc3nc3ccccc23)cc1 | 7.43 | –
CS(=O)(=O)Nc1ccc(Nc2c3ccccc3nc3c(C(N)=O)cccc23)cc1 | 6.12 | –
O=C(O)Cc1ccc(Nc2c3ccccc3nc3ccccc23)cc1 | 7.92 | –
COc1cc(NS(C)(=O)=O)ccc1Cc1c2c(nc3ccccc13)CC(=N)C=C2 | 5.53 | –
CNC(=O)Nc1ccc(Cc2c3ccccc3nc3ccccc23)cc1 | 7.77 | –
Cc1ccc(Cc2c3ccccc3nc3ccccc23)cc1 | 7.72 | –
COc1cc(NS(C)(=O)=O)ccc1Cc1c2c(nc3ccccc13)C(=N)CC=C2 | 6.09 | –
O=C(O)CCc1ccc(Nc2c3ccccc3nc3ccccc23)cc1 | 7.91 | –
c1ccc(Cc2c3ccccc3nc3ccccc23)cc1 | 7.46 | –
NC(=O)c1ccc(Nc2c3ccccc3nc3ccccc23)cc1 | 6.47 | –
Brc1ccc(Cc2c3ccccc3nc3ccccc23)cc1 | 7 | –
O=C(O)COc1ccc(Nc2c3ccccc3nc3ccccc23)cc1 | 8.19 | –
O=C(O)c1cccc(Nc2c3ccccc3nc3ccccc23)c1 | 7.62 | –
NS(=O)(=O)Cc1ccc(Nc2c3ccccc3nc3ccccc23)cc1 | 7.05 | –

Second part, the compound after the results:

pKa (physchem [1]) | pKa (physchem [2]) | Structure (SMILES)
7.28 | – | O=C(O)c1ccccc1Nc1c2ccccc2nc2ccccc12
6.52 | – | CS(=O)(=O)Nc1ccc(Nc2c3ccccc3nc3cc(I)ccc23)cc1
6.85 | – | CS(=O)(=O)Nc1cccc(Nc2c3ccccc3nc3ccccc23)c1
5.72 | – | COc1cc(NS(C)(=O)=O)ccc1Cc1c2ccccc2nc2cc([N+](=O)[O-])ccc12
7 | – | CS(=O)(=O)Nc1ccc(Nc2cc(N=[N+]=[N-])nc3ccccc23)cc1
5.93 | – | N#Cc1ccc(Cc2c3ccccc3nc3ccccc23)cc1
7.09 | – | O=S(=O)(Nc1ccc(Cc2c3ccccc3nc3ccccc23)cc1)c1ccccc1
6.11 | – | NS(=O)(=O)c1ccc(Nc2c3ccccc3nc3ccccc23)cc1
3.82 | – | COc1cc(NS(C)(=O)=O)ccc1Cc1c2ccc([N+](=O)[O-])cc2nc2cc([N+](=O)[O-])ccc12
7.77 | – | O=S(=O)(O)CCc1ccc(Nc2c3ccccc3nc3ccccc23)cc1
8.12 | – | O=C(O)Cc1ccccc1Nc1c2ccccc2nc2ccccc12
7.43 | – | NS(=O)(=O)CCc1ccc(Nc2c3ccccc3nc3ccccc23)cc1
7.34 | – | CC(=O)Nc1ccc2c(Nc3ccc(NS(C)(=O)=O)cc3)c3ccccc3nc2c1
7.51 | – | CC(=O)Nc1ccc(Cc2c3ccccc3nc3ccccc23)cc1
8.9 | – | Nc1ccc2c(Nc3ccc(C(=O)O)cc3)c3ccccc3nc2c1
